Test results reported in patent US20120093876A1, “Ophthalmic Formulations, Methods Of Manufacture And Methods of Normalizing Meibomian Gland Secretions” (Aciex, Inc., priority 2010, published 2012).
Where a name gives a salt, the structure may show the parent alone.

Tests used:
[1] = Comfort of hydrophilic excipient bases; type: in vivo; conditions: hydrophilic base
Text: (§1) The purpose of this study was to investigate the feasibility of formulating Minocycline HCl in a ‘gelment’ with a medicated swab container closure. Specifically, formulation feasibility and stability with hydrophilic bases (PEG 400, propylene glycol, glycerol) investigated. Glycerin was unacceptable from a comfort perspective. […] (Following 3 weeks at 25/40, epi-minocycline was 20.7% for PEG 400 base and 2.9% for propylene glycol base.) Degradation was not detected following e-beam irradiation of Minocycline suspended in light mineral oil (single-point testing performed following irradiation—no stability evaluation).

[2] = Degradation after e-beam irradiation; type: physicochemical; conditions: suspended in light mineral oil; single-point testing following irradiation
Text: as §1

[3] = Batch uniformity and stability of micronized and unmicronized oil and ointment formulations; type: physicochemical; conditions: jetmilling or cryomilling; 2 batches of drug substance
Description: Two Minocycline HCl drug substance batches were micronized (by jetmilling and cryomilling) and evaluated for chemical properties post-micronization. Jetmilled, cryomilled, and unmicronized oil and ointment formulations were evaluated for batch uniformity and stability.
Oil formulations were 100% oil and ointments were 100% petrolatum. […]. […] evaluated with respect to solubility in light mineral oil.
[…]. The oil suspensions in this study provided consistent T0 results, unlike the earlier oil formulations with unmicronized Minocycline HCl.

[4] = Excipient compatibility stability screen, minocycline quantitated by HPLC; conditions: in mineral oil, relative to castor and olive oil

SMILES | Comfort [1] | Degradation following e-beam irradiation [2] | Change in assay following micronization [3] | Stability (degree of epimerization) in excipient [4]
OCC(O)CO [Glycerin] | unacceptable |  |  | 
CN(C)c1ccc(O)c2c1C[C@H]1C[C@H]3[C@H](N(C)C)C(O)=C(C(N)=O)C(=O)[C@@]3(O)C(O)=C1C2=O [Minocycline HCl] |  | not detected | No change | greatest stability
